From patent EP4733303A1, “MUSCARINIC M4 RECEPTOR AGONIST AND USE THEREOF” (Haisco Pharmaceutical Group Co., Ltd., priority 2023, dated 2024)

Target: T1, M4 receptor (Homo sapiens, UniProt P08173)
T1 construct: expressed in transfected cells; host or cells: CHO (M4-CHO cells)
T1 sequence (P08173 1-479): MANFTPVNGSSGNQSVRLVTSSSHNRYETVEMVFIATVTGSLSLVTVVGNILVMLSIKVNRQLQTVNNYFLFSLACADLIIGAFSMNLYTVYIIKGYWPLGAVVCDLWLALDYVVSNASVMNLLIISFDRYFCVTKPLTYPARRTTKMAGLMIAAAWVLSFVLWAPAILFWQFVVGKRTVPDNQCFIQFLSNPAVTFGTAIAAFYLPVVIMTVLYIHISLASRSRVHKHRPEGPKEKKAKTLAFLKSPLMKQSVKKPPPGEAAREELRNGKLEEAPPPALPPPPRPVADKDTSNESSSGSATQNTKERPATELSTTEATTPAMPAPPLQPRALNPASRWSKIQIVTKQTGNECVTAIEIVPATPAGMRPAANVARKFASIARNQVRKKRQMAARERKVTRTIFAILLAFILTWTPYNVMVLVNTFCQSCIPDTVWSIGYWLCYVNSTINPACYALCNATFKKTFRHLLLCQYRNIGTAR
Assay: PAM agonistic activity of compound on M4 receptor (FLIPR Calcium 6 assay in M4-CHO cells)
Assay type: cell-based
Conditions: with acetylcholine (Ach), final concentration 3 nM
Description: • 1). Cell plating: M4-CHO cells were digested, collected, and resuspended. After cell counting, the cell suspension was seeded into a 384-well cell plate at a density of: 1.2 × 10^4 cells/25 µL/well. The cell plate was then cultured in a 37°C, 5% CO2 incubator for about 16-20 h. • 2). Day 2: Assay Buffer was prepared according to the instructions of the FLIPR Calcium 6 Assay Kit. Component A (20×) was thawed to room temperature and diluted with the Assay Buffer to prepare a loading buffer (1×), which was stored at room temperature until use. • 3). The culture medium was removed from the cell plate. 40 µL of the loading buffer (1×) was quickly added to each well. The cell plate was then centrifuged and incubated at 37°C in the dark for 120 min. • 4). Working solutions of the positive control compound and the test compounds were prepared. An acetylcholine (Ach) agonist compound solution was prepared (final concentration: 3 nM). The PAM compound and the Ach agonist solution were mixed at a 1 : 1 ratio, and the mixture was transferred into a 384-well compound source plate at 20 µL per well. • 5). The cell plate, the compound source plate, and the pipette tips were placed into the corresponding positions within the FLIPR instrument. 10 µL of the diluted compound from step 4 was added into each experimental well using the FLIPR Tetra. Data was collected at the wavelength of 515 nm-575 nm. • 6). The signal values were plotted against the compound concentrations. Nonlinear regression analysis was performed using GraphPad Prism software for curve fitting and EC50 calculation.
The experimental results are shown in Table 1, where A represents EC50 < […]; B represents 100 nM ≤ EC50 < 500 nM, and C represents 500 nM ≤ EC50. Table 1. Agonistic activity of compounds on M4 receptor

EC50, < 100 nM:
Cc1ccn(-c2cc(N3CC(CC(=O)N4Cc5nc(COC6CC6)cc(C)c5C4)C3)ccn2)n1 [Compound 91]
Cc1ccn(-c2cc(N3CC(CC(=O)N4Cc5nc6c(c(C)c5C4)CCC6)C3)ncn2)n1 [Compound 92]
Cc1c2c(nc3c1CN(C(=O)CC1CN(c4ccnc(OC5CCOC5)c4)C1)C3)CCC2 (stereo not shown) [Compound 93]
Cc1c2c(nc3c1CN(C(=O)CC1CN(c4ccc5c(c4)CCC5=O)C1)C3)CCC2 [Compound 94]
Cc1c2c(nc3c1CN(C(=O)CC1CN(c4ccnc(-n5cccn5)c4)C1)C3)CCC2 [Compound 95]
Cc1cc(C)c2c(n1)CN(C(=O)CC1CN(c3ccnc(-c4nc(C)nn4C)c3)C1)C2 [Compound 96]
Cc1cc(C)c2c(n1)CN(C(=O)CC1CN(c3ccnc(-c4ncnn4C)c3)C1)C2 [Compound 97]
Cc1ccn(-c2cc(N3CC(CC(=O)N4Cc5nc(C6CCOCC6)cc(C)c5C4)C3)ccn2)n1 [Compound 98]
Cc1ccn(-c2cc(N3CC(CC(=O)N4Cc5c(C)cc(=O)n(C)c5C4)C3)ccn2)n1 [Compound 99]
Cc1cc(=O)n(C)c2c1CN(C(=O)CC1CN(c3ccnc(C(F)(F)F)c3)C1)C2 [Compound 100]
Cc1cc(=O)n(C)c2c1CN(C(=O)CC1CN(c3ccnc(OC4CC(F)(F)C4)c3)C1)C2 [Compound 101]
Cc1cc(C)c2c(n1)CN(C(=O)CC1CN(c3cnnc(-n4ccc(C)n4)c3)C1)C2 [Compound 102]
Cc1cc(C#N)c(F)c2c1CN(C(=O)CC1CN(c3ccnc(OC4CC(F)(F)C4)c3)C1)C2 [Compound 103]
Cc1nc(C#N)c2c(n1)CN(C(=O)CC1CN(c3ccnc(OC4CC(F)(F)C4)c3)C1)C2 [Compound 107]
Cc1cc(C)c2c(n1)CN(C(=O)CC1CN(c3ccnc(-n4cnnc4)c3)C1)C2 [Compound 108]
Cc1cc(-c2cnn(C)c2)nc2c1CN(C(=O)CC1CN(c3ccnc(C(F)(F)F)c3)C1)C2 [Compound 109]
Cc1cc(-c2ccn(C)n2)nc2c1CN(C(=O)CC1CN(c3ccnc(C(F)(F)F)c3)C1)C2 [Compound 112]
Cc1nc(C#N)nc2c1CN(C(=O)CC1CN(c3ccnc(OC4CC(F)(F)C4)c3)C1)C2 [Compound 115]
Cc1c2c(n(C)c(=O)c1Cl)CN(C(=O)CC1CN(c3ccnc(OC4CC(F)(F)C4)c3)C1)C2 [Compound 116]
Cc1cc(=O)n(C)c2c1CN(C(=O)CC1CN(c3ccnc(O[C@H]4CCOC4)c3)C1)C2 [Compound 117]
Cc1cc(=O)n(C)c2c1CN(C(=O)CC1CN(c3ccnc(O[C@@H]4CCOC4)c3)C1)C2 [Compound 118]
Cc1cc(=O)n(C)c2c1CN(C(=O)CC1CN(c3ccnc(-n4ccc(F)n4)c3)C1)C2 [Compound 119]
Cc1cc(C)c2c(n1)CN(C(=O)CC1CN(c3ccnc(C(=O)c4cnn(C)c4)c3)C1)C2 [Compound 120]
C=C1CC(Oc2cc(N3CC(CC(=O)N4Cc5nc(C)cc(C)c5C4)C3)ccn2)C1 [Compound 121]
Cc1ccn(-c2cc(N3CC(CC(=O)N4Cc5nc(-c6cnn(C)c6)nc(C)c5C4)C3)ccn2)n1 [Compound 123]
Cc1cc(C2CCOC2)nc2c1CN(C(=O)CC1CN(c3ccnc(C(F)(F)F)c3)C1)C2 (stereo not shown) [Compound 125]
Cc1ncn(-c2cc(N3CC(CC(=O)N4Cc5c(C)cc(=O)n(C)c5C4)C3)ccn2)n1 [Compound 127]
Cc1ncn(-c2cc(N3CC(CC(=O)N4Cc5nc(-c6cnn(C)c6)nc(C)c5C4)C3)ccn2)n1 [Compound 130]
Cc1cc(=O)n(C)c2c1CN(C(=O)CC1CN(c3ccc4c(c3)CCC4=O)C1)C2 [Compound 131]
Cc1ccn(-c2cc(N3CC(CC(=O)N4Cc5c(C)cc(=O)n(C)c5C4)C3)cnn2)n1 [Compound 133]
Cc1cc(C)c2c(n1)CN(C(=O)CC1CN(c3ccnc(-n4ccc(C(F)F)n4)c3)C1)C2 [Compound 134]
COc1nc(C)c2c(n1)CN(C(=O)CC1CN(c3ccnc(OC4CC(F)(F)C4)c3)C1)C2 [Compound 137]
Cc1cc(=O)n(C)c2c1CN(C(=O)CC1CN(c3ccnc(OC4CC4)c3)C1)C2 [Compound 138]
Cc1cc(=O)n(C)c2c1CN(C(=O)OC1CN(c3ccnc(OC4CC(F)(F)C4)c3)C1)C2 [Compound 139]
Cn1c2c(c(F)cc1=O)CN(C(=O)CC1CN(c3ccnc(OC4CC(F)(F)C4)c3)C1)C2 [Compound 141]
Cc1nc(-c2cnn(C)c2)nc2c1CN(C(=O)CC1CN(c3ccnc(OC4CC(F)(F)C4)c3)C1)C2 [Compound 143]
Cc1nc(-c2ccnn2C)nc2c1CN(C(=O)CC1CN(c3ccnc(OC4CC(F)(F)C4)c3)C1)C2 [Compound 144]
Cc1ncn(-c2cc(N3CC(CC(=O)N4Cc5nc(-c6ccnn6C)nc(C)c5C4)C3)ccn2)n1 [Compound 146]
Cc1cc(-c2cnn(C)c2)nc2c1CN(C(=O)CC1CN(c3ccnc(OC4CC4)c3)C1)C2 [Compound 148]
Cc1cc(C)c2c(n1)CN(C(=O)CC1CN(c3cc(-n4ccc(F)n4)ncc3F)C1)C2 [Compound 149]
Cc1ncn(-c2cc(N3CC(CC(=O)N4Cc5nc(-c6cnn(C(F)F)c6)cc(C)c5C4)C3)ccn2)n1 [Compound 150]
Cc1cc(-c2ccnn2C)nc2c1CN(C(=O)CC1CN(c3ccnc(OC4CC(F)(F)C4)c3)C1)C2 [Compound 158]
Cc1cc(=O)n(C)c2c1CN(C(=O)CC1CN(c3ccnc(-n4ccc(C(F)(F)F)n4)c3)C1)C2 [Compound 160]
Cc1cc(-c2cnn(C(F)F)c2)nc2c1CN(C(=O)CC1CN(c3ccnc(C(F)(F)F)c3)C1)C2 [Compound 162]
Cc1ncn(-c2nc(C)c3c(n2)CN(C(=O)CC2CN(c4ccnc(OC5CC(F)(F)C5)c4)C2)C3)n1 [Compound 163]
C=C1CC(Oc2cc(N3CC(CC(=O)N4Cc5c(C)cc(=O)n(C)c5C4)C3)ccn2)C1 [Compound 165]
C=C1CC(Oc2cc(N3CC(CC(=O)N4Cc5nc(-c6cnn(C)c6)cc(C)c5C4)C3)ccn2)C1 [Compound 166]
Cc1nc(-c2cnn(C)c2)nc2c1CN(C(=O)CC1CN(c3ccnc(OC4CCOC4)c3)C1)C2 (stereo not shown) [Compound 168]
Cc1cc(-c2cnn(C)c2)nc2c1CN(C(=O)CC1CN(c3ccnc(OC4CCOC4)c3)C1)C2 (stereo not shown) [Compound 169]
